pIC50: −log10 of the molar value.
Columns and labels:
[1] = target: intracellular phosphorylation of EGFR (Tyr1068) in PC-9 cells (Homo sapiens, UniProt P00533, DEL746-750); test: PC-9 pEGFR AlphaLISA assay; format: cell-based; details: 4 hours incubation, read-out: Phos EGFR PC9 IC50
How it was run: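 PC-9 cells (EGFR del746-750) in phenol-free DMEM/10% FBS, adhered overnight, then exposed to 10-point 4-fold compound dilutions for 4 h at 37 °C. Lysates assayed for pEGFR Tyr1068 by AlphaLISA SureFire Ultra; IC50 from percent pEGFR inhibition vs log concentration.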

EGFR L858R = target: T1, EGFR L858R (Homo sapiens, UniProt P00533, L858R); test: Biochemical EGFR inhibition assay (Caliper mobility shift), EGFR L858R; details: biochemical Caliper mobility shift assay, EGFR L858R enzyme; read-out: Enz EGFR L858R IC50
T1 construct: purchased SignalChem E10-122BG
How it was run: (§1)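 Apparent IC50 values come from Caliper electrophoretic separation of phosphorylated and unphosphorylated 5-FAM peptide (2.5 μM). ATP was either 1.0 mM or at Km; HEPES pH 7.5 buffer with MgCl2, DTT, 1% DMSO. Reactions ran at 25 °C until 10–20% phosphorylated, then EDTA quench.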

EGFR (d746-750) = target: T2, EGFR (d746-750) (Homo sapiens, UniProt P00533, DEL746-750); test: Biochemical EGFR inhibition assay (Caliper mobility shift), EGFR (d746-750); details: biochemical Caliper mobility shift assay, EGFR Exon 19-del enzyme; read-out: Enz EGFR Exon 19-del IC50
T2 construct: purchased SignalChem E10-122JG
How it was run: as §1

Chain of intracellular phosphorylation of EGFR (Tyr1068) in PC-9 cells (P00533 with tags, fused parts or gaps DEL746-750): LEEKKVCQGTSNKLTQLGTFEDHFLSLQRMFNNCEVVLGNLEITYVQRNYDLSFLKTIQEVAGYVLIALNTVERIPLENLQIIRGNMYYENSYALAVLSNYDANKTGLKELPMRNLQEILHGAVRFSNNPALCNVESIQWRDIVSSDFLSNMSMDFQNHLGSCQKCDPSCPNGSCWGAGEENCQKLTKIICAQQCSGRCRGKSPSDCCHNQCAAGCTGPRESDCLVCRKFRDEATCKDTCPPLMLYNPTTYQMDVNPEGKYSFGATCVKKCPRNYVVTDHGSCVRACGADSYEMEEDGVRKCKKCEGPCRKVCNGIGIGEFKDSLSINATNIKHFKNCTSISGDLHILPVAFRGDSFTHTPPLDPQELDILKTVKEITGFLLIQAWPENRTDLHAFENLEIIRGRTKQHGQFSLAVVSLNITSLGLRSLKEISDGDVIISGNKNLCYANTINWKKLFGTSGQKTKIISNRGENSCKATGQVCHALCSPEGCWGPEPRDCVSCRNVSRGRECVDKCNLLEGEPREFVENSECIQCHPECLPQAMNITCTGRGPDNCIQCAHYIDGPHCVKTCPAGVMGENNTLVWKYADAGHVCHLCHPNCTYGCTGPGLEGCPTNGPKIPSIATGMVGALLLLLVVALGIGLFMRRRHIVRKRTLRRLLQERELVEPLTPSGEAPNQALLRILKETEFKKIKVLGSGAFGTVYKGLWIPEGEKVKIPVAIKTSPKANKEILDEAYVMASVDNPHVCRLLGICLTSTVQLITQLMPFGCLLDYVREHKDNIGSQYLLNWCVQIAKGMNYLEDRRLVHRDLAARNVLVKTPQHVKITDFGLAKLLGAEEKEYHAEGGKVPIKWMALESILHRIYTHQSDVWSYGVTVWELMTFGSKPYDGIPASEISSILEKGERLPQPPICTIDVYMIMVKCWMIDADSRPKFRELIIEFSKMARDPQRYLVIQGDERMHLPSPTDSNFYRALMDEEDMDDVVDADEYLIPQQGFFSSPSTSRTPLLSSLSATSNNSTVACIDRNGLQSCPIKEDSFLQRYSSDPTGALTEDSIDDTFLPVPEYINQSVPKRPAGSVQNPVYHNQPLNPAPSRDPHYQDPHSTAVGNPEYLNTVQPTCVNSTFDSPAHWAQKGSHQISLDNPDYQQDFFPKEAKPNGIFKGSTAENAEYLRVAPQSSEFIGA
T2 sequence (P00533 with tags, fused parts or gaps DEL746-750 limits assumed): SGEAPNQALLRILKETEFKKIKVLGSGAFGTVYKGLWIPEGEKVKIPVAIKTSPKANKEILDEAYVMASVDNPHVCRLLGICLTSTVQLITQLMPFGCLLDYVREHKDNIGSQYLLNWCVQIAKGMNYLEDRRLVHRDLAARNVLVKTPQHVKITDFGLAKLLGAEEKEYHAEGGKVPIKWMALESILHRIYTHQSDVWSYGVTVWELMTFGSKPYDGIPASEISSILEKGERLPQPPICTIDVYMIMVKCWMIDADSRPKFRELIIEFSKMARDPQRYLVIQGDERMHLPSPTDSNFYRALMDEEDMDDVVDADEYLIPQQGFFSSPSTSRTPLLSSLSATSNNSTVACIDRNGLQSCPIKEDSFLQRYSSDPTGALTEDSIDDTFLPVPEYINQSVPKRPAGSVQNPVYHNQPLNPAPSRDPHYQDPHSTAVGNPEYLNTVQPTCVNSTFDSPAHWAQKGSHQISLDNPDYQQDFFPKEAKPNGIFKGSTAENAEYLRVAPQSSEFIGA
T1 sequence (P00533 25-1210 L858R): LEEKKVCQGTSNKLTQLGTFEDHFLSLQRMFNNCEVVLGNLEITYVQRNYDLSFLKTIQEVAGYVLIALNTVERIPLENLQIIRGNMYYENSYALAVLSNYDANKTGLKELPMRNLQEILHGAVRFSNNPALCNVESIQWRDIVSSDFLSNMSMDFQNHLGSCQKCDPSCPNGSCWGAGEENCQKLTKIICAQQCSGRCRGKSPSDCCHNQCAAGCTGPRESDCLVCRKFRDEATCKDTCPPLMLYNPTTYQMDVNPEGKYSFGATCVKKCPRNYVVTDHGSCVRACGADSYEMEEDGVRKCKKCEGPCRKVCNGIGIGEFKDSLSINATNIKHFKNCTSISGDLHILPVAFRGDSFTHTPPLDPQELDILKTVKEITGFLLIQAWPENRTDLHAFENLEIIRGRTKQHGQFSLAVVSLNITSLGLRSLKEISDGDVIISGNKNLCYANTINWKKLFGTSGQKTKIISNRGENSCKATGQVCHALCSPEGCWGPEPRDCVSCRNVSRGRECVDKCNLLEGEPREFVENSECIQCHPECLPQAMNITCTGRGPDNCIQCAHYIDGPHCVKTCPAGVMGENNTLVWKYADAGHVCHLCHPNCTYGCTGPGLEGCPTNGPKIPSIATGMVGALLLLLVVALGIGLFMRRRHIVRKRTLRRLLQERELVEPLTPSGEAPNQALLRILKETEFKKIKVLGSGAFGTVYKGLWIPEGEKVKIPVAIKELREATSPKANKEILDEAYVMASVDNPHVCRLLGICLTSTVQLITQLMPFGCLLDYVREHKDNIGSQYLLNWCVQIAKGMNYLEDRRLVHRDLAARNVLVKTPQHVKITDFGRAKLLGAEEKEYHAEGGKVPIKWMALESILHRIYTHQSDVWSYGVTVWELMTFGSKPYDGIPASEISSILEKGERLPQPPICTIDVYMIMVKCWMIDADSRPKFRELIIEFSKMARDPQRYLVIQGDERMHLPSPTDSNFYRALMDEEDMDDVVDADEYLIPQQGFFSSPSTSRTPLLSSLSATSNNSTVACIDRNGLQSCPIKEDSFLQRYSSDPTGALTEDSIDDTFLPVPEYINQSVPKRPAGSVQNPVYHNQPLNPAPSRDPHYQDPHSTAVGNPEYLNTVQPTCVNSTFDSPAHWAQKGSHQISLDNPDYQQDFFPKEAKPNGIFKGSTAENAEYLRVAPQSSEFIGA

SMILES	pIC50 [1]	pIC50 (EGFR L858R)	pIC50 (EGFR (d746-750))
CN(C)C1(COc2cc(-c3cnn(C)c3)cc3ncnc(Nc4ccc5ncsc5c4)c23)COC1 [Example 187, N-(5-((3-(dimethylamino)oxetan-3-yl)methoxy)-7-(1-methyl-1H-pyrazol-4-yl)quinazolin-4-yl)benzo[d]thiazol-6-amine]	7.30 to 8.00	7.30 to 8.00	≥ 8.00
CN(C)CC1(COc2cc(-c3cnn(C)c3)cc3ncnc(Nc4ccc5ncsc5c4)c23)COC1 [Example 188, N-(5-((3-((dimethylamino)methyl)oxetan-3-yl)methoxy)-7-(1-methyl-1H-pyrazol-4-yl)quinazolin-4-yl)benzo[d]thiazol-6-amine]	7.30 to 8.00	7.30 to 8.00	≥ 8.00
CN1CCC(Oc2cc(-c3cnn(C(F)F)c3)cc3ncnc(Nc4ccc5ncsc5c4)c23)CC1 [Example 189, N-(7-(1-(difluoromethyl)-1H-pyrazol-4-yl)-5-((1-methylpiperidin-4-yl)oxy)quinazolin-4-yl)benzo[d]thiazol-6-amine]	7.30 to 8.00	7.30 to 8.00	≥ 8.00
CC(C)(O)Cn1cc(-c2cc(OC3CCOCC3)c3c(Nc4ccc5ncsc5c4)ncnc3c2)cn1 [Example 190, 1-(4-(4-(benzo[d]thiazol-6-ylamino)-5-((tetrahydro-2H-pyran-4-yl)oxy)quinazolin-7-yl)-1H-pyrazol-1-yl)-2-methylpropan-2-ol]	≥ 8.00	≥ 8.00	≥ 8.00
CC(C)n1cc(-c2cc(OC3CCOCC3)c3c(Nc4ccc5ncsc5c4)ncnc3c2)cn1 [Example 191, N-(7-(1-isopropyl-1H-pyrazol-4-yl)-5-((tetrahydro-2H-pyran-4-yl)oxy)quinazolin-4-yl)benzo[d]thiazol-6-amine]	7.30 to 8.00	≥ 8.00	≥ 8.00
COC[C@@H](C)Oc1cc(N2CCN3CCC[C@@H]3C2)cc2ncnc(Nc3ccc4ncsc4c3)c12 [Example 192, N-(7-((R)-hexahydropyrrolo[1,2-a]pyrazin-2(1H)-yl)-5-(((R)-1-methoxypropan-2-yl)oxy)quinazolin-4-yl)benzo[d]thiazol-6-amine]	7.30 to 8.00	≥ 8.00	≥ 8.00
C[C@@H]1CN(c2cc(O[C@H](C)C3COC3)c3c(Nc4ccc5ncsc5c4)ncnc3c2)C[C@H](C)O1 [Example 193, N-(7-((2S,6R)-2,6-dimethylmorpholino)-5-((R)-1-(oxetan-3-yl)ethoxy)quinazolin-4-yl)benzo[d]thiazol-6-amine]	≥ 8.00	≥ 8.00	≥ 8.00
CC(C)N1CCN(c2cc(OC3CCOCC3)c3c(Nc4ccc5ncsc5c4)ncnc3c2)C1=O [Example 194, 1-(4-(benzo[d]thiazol-6-ylamino)-5-((tetrahydro-2H-pyran-4-yl)oxy)quinazolin-7-yl)-3-isopropylimidazolidin-2-one]	≥ 8.00	≥ 8.00	≥ 8.00
COC[C@@H](C)Oc1cc(N2CCNCC2)cc2ncnc(Nc3ccc4ncsc4c3)c12 [Example 195, (R)-N-(5-((1-methoxypropan-2-yl)oxy)-7-(piperazin-1-yl)quinazolin-4-yl)benzo[d]thiazol-6-amine]	7.30 to 8.00	≥ 8.00	≥ 8.00
COC[C@@H](C)Oc1cc(N2CCN(CCO)CC2)cc2ncnc(Nc3ccc4ncsc4c3)c12 [Example 196, (R)-2-(4-(4-(benzo[d]thiazol-6-ylamino)-5-((1-methoxypropan-2-yl)oxy)quinazolin-7-yl)piperazin-1-yl)ethan-1-ol]	7.30 to 8.00	≥ 8.00	≥ 8.00
CO[C@H]1CCN(c2cc(O[C@H](C)C3COC3)c3c(Nc4ccc5ncsc5c4)ncnc3c2)C1 [Example 197, N-(7-((S)-3-methoxypyrrolidin-1-yl)-5-((R)-1-(oxetan-3-yl)ethoxy)quinazolin-4-yl)benzo[d]thiazol-6-amine]	≥ 8.00	≥ 8.00	≥ 8.00
CO[C@@H]1CCN(c2cc(O[C@H](C)C3COC3)c3c(Nc4ccc5ncsc5c4)ncnc3c2)C1 [Example 198, N-(7-((R)-3-methoxypyrrolidin-1-yl)-5-((R)-1-(oxetan-3-yl)ethoxy)quinazolin-4-yl)benzo[d]thiazol-6-amine]	≥ 8.00	≥ 8.00	≥ 8.00
c1nc(Nc2ccc3ncsc3c2)c2c(OC3CCOCC3)cc(N3CC4CC(C3)O4)cc2n1 [Example 199, N-(7-(6-oxa-3-azabicyclo[3.1.1]heptan-3-yl)-5-((tetrahydro-2H-pyran-4-yl)oxy)quinazolin-4-yl)benzo[d]thiazol-6-amine]	7.30 to 8.00	≥ 8.00	≥ 8.00
COCCN1CCN(c2cc(O[C@H](C)COC)c3c(Nc4ccc5ncsc5c4)ncnc3c2)CC1 [Example 201, (R)-N-(7-(4-(2-methoxyethyl)piperazin-1-yl)-5-((1-methoxypropan-2-yl)oxy)quinazolin-4-yl)benzo[d]thiazol-6-amine]	7.30 to 8.00	≥ 8.00	≥ 8.00

The next lines start with the values.

pIC50 [1]	pIC50 (EGFR L858R)	pIC50 (EGFR (d746-750))	SMILES
≥ 8.00	≥ 8.00	≥ 8.00	Cc1cn(-c2cc(O[C@H](C)C3COC3)c3c(Nc4ccc5ncsc5c4)ncnc3c2)c(=O)n1C [Example 202, (R)-1-(4-(benzo[d]thiazol-6-ylamino)-5-(1-(oxetan-3-yl)ethoxy)quinazolin-7-yl)-3,4-dimethyl-1,3-dihydro-2H-imidazol-2-one]
7.30 to 8.00	7.30 to 8.00	≥ 8.00	Cc1cn(-c2cc(OC(C)CN(C)C)c3c(Nc4ccc5ncsc5c4)ncnc3c2)c(=O)n1C (stereo not drawn) [Example 203, 1-(4-(benzo[d]thiazol-6-ylamino)-5-((1-(dimethylamino)propan-2-yl)oxy)quinazolin-7-yl)-3,4-dimethyl-1,3-dihydro-2H-imidazol-2-one]
≥ 8.00	≥ 8.00	≥ 8.00	C[C@@H](Oc1cc(N2CC3(COC3)C2)cc2ncnc(Nc3ccc4ncsc4c3)c12)C1COC1 [Example 204, (R)-N-(5-(1-(oxetan-3-yl)ethoxy)-7-(2-oxa-6-azaspiro[3.3]heptan-6-yl)quinazolin-4-yl)benzo[d]thiazol-6-amine]
7.30 to 8.00	≥ 8.00	≥ 8.00	CN1CCC(n2cc(-c3cc(F)c4c(Nc5ccc6ncsc6c5F)ncnc4c3)cn2)CC1 [Example 227, 7-fluoro-N-(5-fluoro-7-(1-(1-methylpiperidin-4-yl)-1H-pyrazol-4-yl)quinazolin-4-yl)benzo[d]thiazol-6-amine]
≥ 8.00	≥ 8.00	≥ 8.00	COc1cc2ncnc(Nc3ccc4ncsc4c3F)c2cc1-c1cnn(C2CCN(C)CC2)c1 [Example 240, 7-fluoro-N-(7-methoxy-6-(1-(1-methylpiperidin-4-yl)-1H-pyrazol-4-yl)quinazolin-4-yl)benzo[d]thiazol-6-amine]
7.30 to 8.00	≥ 8.00	≥ 8.00	COc1cc2ncnc(Nc3ccc4ncsc4c3)c2cc1-c1cnn(CC2CCN(C)CC2)c1 [Example 242, N-(7-methoxy-6-(1-((1-methylpiperidin-4-yl)methyl)-1H-pyrazol-4-yl)quinazolin-4-yl)benzo[d]thiazol-6-amine]
7.30 to 8.00	7.30 to 8.00	7.30 to 8.00	CN1CCC(Oc2cc(-c3ccc(S(C)(=O)=O)cc3)cc3ncnc(Nc4ccc5ncsc5c4)c23)CC1 [Example 243, N-(5-((1-methylpiperidin-4-yl)oxy)-7-(4-(methylsulfonyl)phenyl)quinazolin-4-yl)benzo[d]thiazol-6-amine]
7.30 to 8.00	≥ 8.00	≥ 8.00	COc1cn(C)nc1-c1cc(O[C@H]2CCCN(C)C2)c2c(Nc3ccc4ncsc4c3)ncnc2c1 [Example 245, (S)-N-(7-(4-methoxy-1-methyl-1H-pyrazol-3-yl)-5-((1-methylpiperidin-3-yl)oxy)quinazolin-4-yl)benzo[d]thiazol-6-amine]
7.30 to 8.00	≥ 8.00	≥ 8.00	COc1cn(C)nc1-c1cc(O[C@H]2CCCN(C)C2)c2c(Nc3ccc4ncsc4c3F)ncnc2c1 [Example 246, (S)-7-fluoro-N-(7-(4-methoxy-1-methyl-1H-pyrazol-3-yl)-5-((1-methylpiperidin-3-yl)oxy)quinazolin-4-yl)benzo[d]thiazol-6-amine]
7.30 to 8.00	≥ 8.00	≥ 8.00	CN1CCC[C@H](Oc2cc(-c3cn(C)nn3)cc3ncnc(Nc4ccc5ncsc5c4)c23)C1 [Example 247, (S)-N-(7-(1-methyl-1H-1,2,3-triazol-4-yl)-5-((1-methylpiperidin-3-yl)oxy)quinazolin-4-yl)benzo[d]thiazol-6-amine]
7.30 to 8.00	7.30 to 8.00	≥ 8.00	CN1CCC[C@H](Oc2cc(-c3cn(C)nc3OC(F)F)cc3ncnc(Nc4ccc5ncsc5c4)c23)C1 [Example 248, (S)-N-(7-(3-(difluoromethoxy)-1-methyl-1H-pyrazol-4-yl)-5-((1-methylpiperidin-3-yl)oxy)quinazolin-4-yl)benzo[d]thiazol-6-amine]
